Measured values published in patent US4169899A, “Penicillamine compounds” (Yoshitomi Pharmaceutical Industries, Ltd., priority 1977, dated 1979).
Where two headings read alike, the source gives them in different places.

Experiments:
[1] = test system: peritoneal macrophages; test: Release (secretion) of lysosomal enzymes from macrophages during phagocytosis; assay type: cell-based; details: Rattus norvegicus, Peritoneal macrophage, 0.5 h, serum-treated zymosan, 37° C., 30 minutes
Description: (§1) (2) Assay of release of lysosomal enzymes from polymorphonuclear (PMN) leukocytes or macrophages during phagocytosis
Preparation of rat peritoneal macrophages was carried out according to the method described by D. Gemsa et al in "Journal of Clinical Investigation",vol. 52, 812 (1973).
(§2) Lysosomal enzymes were released from PMN leukocytes exposed to homologous serum-treated zymosan particles (0.5-3 μ in diameter, Sigma) according to the method described by M. Nakanishi et al in "Yakugaku Zasshi (Journal of the Pharmaceutical Society of Japan)", vol. 95, 672 (1975).
(§3) The effects of test compounds on the enzyme release were studied by determining the release of lysosomal marker enzymes such as aryl sulfatase.
(§4) The test compounds were dissolved in ethanol. The test solution (10 μl) or solvent (control, 10 μl) was added to a 10-ml conical flask containing 2.0 ml of the PMN leukocyte or macrophage suspension. The mixture was kept at 25° C. for 10 minutes. Immediately after the addition of 50 μl of serum-treated zymosan particles (10 mg/ml) to the above mixture, 1.0-ml aliquots were removed to determine the initial activity of free enzymes in the supernatant. The residual mixtures were incubated at 37° C. for 30 minutes with shaking at an agitation cycle of 75/min, and centrifuged at 350 g for 10 minutes at 4° C. The supernatant thus obtained was used for the measurement of the marker enzymes released from PMN leukocytes or macrophages during phagocytosis. The total activity of these enzymes was assayed using the 27,000 g supernatant obtained by centrifuging the PMN leukocytes or macrophages incubated at 37° C. for 30 minutes in 0.2% (v/v) Triton X-100 - Hanks' solution.

[2] = test system: Adjuvant induced arthritis; test: Adjuvant induced arthritis in the rat (prophylactic effect); assay type: in vivo, rat (male Wistar)
Description: (3) Adjuvant induced arthritis in the rat
The test was performed according to the method described by B. B. Newbould in "British Journal of Pharmacology", vol. 21, 127 (1963).
Male Wistar rats weighing 180 to 210 g were divided into groups of 8 animals each. The arthritic syndrome was induced by an intradermal injection into the right hind paw of 0.1 ml of a suspension of dead tubercle bacilli (6 mg/ml) in liquid paraffin. Swellings in the hind feet were measured with the fluid displacement method at 4, 10, 15, 18, 21 and 28 days after the adjuvant inoculation. Compounds tested were orally administered daily from the adjuvant inoculation day (day 1) to day 20.

[3] = test system: polymorphonuclear (PMN) leukocytes; test: Release (secretion) of lysosomal enzymes from PMN leukocytes during phagocytosis; assay type: cell-based; details: Rattus norvegicus, 0.5 h, serum-treated zymosan, 37° C., 30 minutes
Description: as §1
Preparation of rat PMN leukocytes was carried out according to the method described by M. Nakanishi et al in "Yakugaku Zasshi (Journal of the Pharmaceutical Society of Japan)", vol. 95, 1027 (1975).
as §2, §3, §4

[4] = test system: Leukocyte migration; test: Leukocyte migration in the rat (CMC pouch); assay type: in vivo, rat (male Donryu); details: compound administered into the CMC pouch; for Leukocyte Migration ED50, 5 hr: 5 hr after CMC injection; for Leukocyte Migration ED50, 7 hr: 7 hr after CMC injection
Description: (1) Leukocyte migration in the rat
The test was performed according to the method described by H. Ishikawa et al in "Yakugaku Zasshi (Journal of the Pharmaceutical Society of Japan)", vol.
Male Donryu rats weighing about 150 g were divided into groups of 4 to 5 animals each. Five ml of 2% suspension of carboxymethylcellulose (CMC) in physiological saline, which was treated by autoclaving at 120° C. for 15 minutes, was injected subcutaneously in the supra-scapular area. Five and 7 hours later, 0.1 ml of fluid in the CMC pouch was collected and mixed with 3 ml of 0.02% brilliant cresyl blue solution in phosphate buffer (0.002M, pH 7.0). The suspension was put in a Burker chamber and the emigrating leukocytes were counted under a microscope (magnification 400x). The percent inhibition was calculated as compared with the count in the control group. Compounds tested were administered into the CMC pouch immediately after the injection of the CMC suspension.

[5] = read-out: Secretion of Lysosomal Enzyme IC20, Macrophage, Macrophage
[6] = po, read-out: Prophylactic Effect on Adjuvant Arthritis MED (minimum effective dose)
[7] = Leukocyte, read-out: Secretion of Lysosomal Enzyme IC20, PMN leukocyte, PMN leukocyte
[8] = Macrophage, read-out: Secretion of Lysosomal Enzyme IC20, Macrophage
[9] = oral, daily from day 1 to day 20, read-out: Prophylactic Effect on Adjuvant Arthritis MED (minimum effective dose)
[10] = PMN leukocyte, read-out: Secretion of Lysosomal Enzyme IC20, PMN leukocyte

Structure (SMILES): CC(=O)Oc1ccccc1C(=O)O [AcetylsalicylicAcid, Acetylsalicylic Acid, reference compound]
- IC20 [1, 5]: 100000 nM
- minimal effective dose [2, 6]: 100 mg/kg
- IC20 [3, 7]: 100 nM
- Leukocyte Migration ED50, 5 hr [4]: 20 mg/rat
- Leukocyte Migration ED50, 7 hr [4]: > 25 mg/rat

Structure (SMILES): CC(C)(S)[C@@H](N)C(=O)O [D-Penicillamine, D-penicillamine, reference compound]
- IC20 [1, 5]: 1000 nM
- minimal effective dose [2, 6]: > 200 mg/kg
- IC20 [3, 7]: 10000 nM
- Leukocyte Migration ED50, 5 hr [4]: > 40 mg/rat
- Leukocyte Migration ED50, 7 hr [4]: > 40 mg/rat

Structure (SMILES): CC1(C)SC(=S)N(Cc2ccccc2)C(=O)C1NC(=O)c1ccc(Cl)cc1 (stereo not shown) [Test Compound A, 3-benzyl-5-(p-chlorobenzamido)-6,6-dimethyl-2-thioxo-tetrahydro-2H-1,3-thiazin-4-one]
- IC20 [1, 8]: > 10000 nM
- minimal effective dose [2, 9]: 50 mg/kg
- IC20 [3, 10]: 200 nM
- Leukocyte Migration ED50, 5 hr [4]: 15 mg/rat
- Leukocyte Migration ED50, 7 hr [4]: 15 mg/rat

Structure (SMILES): CN(C)CCN1C(=O)C(NC(=O)c2ccc(Cl)cc2)C(C)(C)SC1=S (stereo not shown) [Test Compound B, 5-(p-Chlorobenzamido)-3-(2-dimethylaminoethyl)-6,6-dimethyl-2-thioxotetrahydro-2H-1,3-thiazin-4-one]
- IC20 [1, 8]: 200 nM
- minimal effective dose [2, 9]: 25 mg/kg
- IC20 [3, 10]: 500 nM
- Leukocyte Migration ED50, 5 hr [4]: 2 mg/rat
- Leukocyte Migration ED50, 7 hr [4]: 2 mg/rat

Structure (SMILES): CN(C)CCN1C(=O)C(NC(=O)c2ccc(Cl)cc2)C(C)(C)SC1=S.Cc1ccc(S(=O)(=O)O)cc1 (stereo not shown) [Test Compound C, 5-(p-Chlorobenzamido)-3-(2-dimethylaminoethyl)-6,6-dimethyl-2-thioxotetrahydro-2H-1,3-thiazin-4-one p-toluenesulfonate]
- IC20 [1, 5]: 100 nM
- IC20 [3, 7]: 1000 nM
- Leukocyte Migration ED50, 5 hr [4]: 3.5 mg/rat
- Leukocyte Migration ED50, 7 hr [4]: 5 mg/rat

Structure (SMILES): CN(C)CCN1C(=O)C(NC(=O)c2ccc(NS(C)(=O)=O)cc2)C(C)(C)SC1=S.Cc1ccc(S(=O)(=O)O)cc1 (stereo not shown) [Test Compound D, 3-(2-dimethylaminoethyl)-5-(p-methanesulfonamidobenzamido)-6,6-dimethyl-2-thioxo-tetrahydro-2H-1,3-thiazin-4-one p-toluenesulfonate]
- IC20 [1, 5]: 500 nM
- minimal effective dose [2, 6]: 10 mg/kg
- IC20 [3, 7]: 300 nM
- Leukocyte Migration ED50, 5 hr [4]: 2 mg/rat
- Leukocyte Migration ED50, 7 hr [4]: 5 mg/rat

Structure (SMILES): CN(C)CCNC(=S)SC(C)(C)C(NC(=O)c1ccc(Cl)cc1)C(=O)O (stereo not drawn) [Test Compound E, n-(p-Chlorobenzoyl)-S-(2-dimethylaminoethylthiocarbamoyl)-penicillamine]
- IC20 [1, 8]: 100 nM
- minimal effective dose [2, 9]: 10 mg/kg
- IC20 [3, 10]: 1000 nM
- Leukocyte Migration ED50, 5 hr [4]: 2.7 mg/rat
- Leukocyte Migration ED50, 7 hr [4]: 3.6 mg/rat
